According to patent US20240317827A1, “LINEAR PEPTIDES INHIBITING CK2-MEDIATED PHOSPHORYLATION AND COMPOSITIONS COMPRISING SAME” (CENTRO DE INGENIERÍA GENÉTICA Y BIOTECNOLOGÍA, priority 2021, published 2024):
Read-outs that look alike come from different tables or passages of the source. Where a SMILES comes first, the peptide text is derived from it. [ ]: non-standard residue; d: D form. βAla = NCCC(=O)O

Test system: NCI-H125 cell line (non-small cell lung cancer)
Assay: cell proliferation assay, NCI-H125 line
Assay type: cell-based
Description: The evaluation of the antiproliferative activity of polypeptides F11P13-F11P21 (SEQ ID NO: 12-SEQ ID NO: 20) was performed on the NCI-H125 cell line. […] The antiproliferative effect of the CIGB-300 peptide has been widely characterized in this line (Cirigliano S. M., et al., 2017, Cancer Cell International, 17, 42), therefore, it was selected as a positive control. Tat peptide was used as a negative control. The polypeptides were evaluated at the concentrations of 25, 50, 100 and 200 μM. The cell proliferation assay was performed by a previously described procedure (Perera Y., et al., 2012, J. Pept. Sci, 18 (4):215-23).
The 24 polypeptides identified as SEQ ID NO: 21-SEQ ID NO: 44 maintained the ability to inhibit the phosphorylation of the E7 protein of HPV-16, mediated by CK2, since phosphorylation inhibition values between 60-85% were obtained. […] Evaluation of the antiproliferative activity of synthetic polypeptides generated by positional scanning of Trp (SEQ ID NO: 21-SEQ ID NO: 44) was performed on the NCI-H125 cell line. The test was performed by the procedure previously described. (Perera Y., et al., 2012, J. Pept. Sci, 18 (4): 215-23). Precursor polypeptides (F11P19, F11P20, F11P21) and peptide CIGB-300 were included as positive controls. The polypeptides were evaluated at the concentrations of 12.5; 25; fifty; 100 and 200 μM.
The evaluation of the antiproliferative activity of synthetic polypeptides A15P35, A15P36 and A15P37 (SEQ ID NO: 46-SEQ ID NO: 48) was performed on the NCI-H125, AsPC-1, PanC-1 (pancreatic carcinoma) and OCI-AML3 (acute myeloid leukemia-3) cell lines. The test was carried out according to the procedure previously described (Perera Y, et al., 2012, J. Pept. Sci, 18 (4):215-23). […] The polypeptides A15P35, A15P36 and A15P37 were able to produce a dose-dependent effect on the proliferation of NCI-H125 cells.
Antiproliferative assays were performed on the NCI-H125, Hep2C (laryngeal carcinoma) cell lines, and on two bladder cancer lines (MGH-U3 and MGH-U4). The test was carried out according to the procedure previously described (Perera Y., et al, 2012, Pept. Sci, 18 (4):215-23).

[1] = NCI-H125, read-out: IC50 (dose-effect curves)
[2] = NCI-H125, Table 5, read-out: IC50

SMILES	IC50 [1] [µM]	IC50 [2] [µM]
N=C(N)NCCC[C@H](NC(=O)CN)C(=O)N[C@@H](CCCCN)C(=O)N[C@@H](CCCCN)C(=O)N[C@@H](CCCNC(=N)N)C(=O)N[C@@H](CCCNC(=N)N)C(=O)N[C@@H](CCC(N)=O)C(=O)N[C@@H](CCCNC(=N)N)C(=O)N[C@@H](CCCNC(=N)N)C(=O)N[C@@H](CCCNC(=N)N)C(=O)N1CCC[C@H]1C(=O)N1CCC[C@H]1C(=O)N[C@@H](CCC(N)=O)C(=O)NCCC(=O)NCC(=O)N[C@@H](Cc1ccc(O)cc1)C(=O)N[C@@H](CCCNC(=N)N)C(=O)N[C@@H](Cc1ccc(O)cc1)C(=O)N[C@@H](CCCCN)C(=O)N[C@@H](CCCNC(=N)N)C(=O)N[C@@H](CC(=O)O)C(=O)N1CCC[C@H]1C(N)=O [F11P20, GRKKRRQRRRPPQ-βA-GYRYKRDP] (H-GRKKRRQRRRPPQ[βAla]GYRYKRDP-NH2; N-terminus and C-terminus assumed)	305	
N=C(N)NCCC[C@H](NC(=O)CN)C(=O)N[C@@H](CCCCN)C(=O)N[C@@H](CCCCN)C(=O)N[C@@H](CCCNC(=N)N)C(=O)N[C@@H](CCCNC(=N)N)C(=O)N[C@@H](CCC(N)=O)C(=O)N[C@@H](CCCNC(=N)N)C(=O)N[C@@H](CCCNC(=N)N)C(=O)N[C@@H](CCCNC(=N)N)C(=O)N1CCC[C@H]1C(=O)N1CCC[C@H]1C(=O)N[C@@H](CCC(N)=O)C(=O)NCCC(=O)NCC(=O)N[C@@H](Cc1ccc(O)cc1)C(=O)N[C@@H](CCCNC(=N)N)C(=O)N[C@@H](Cc1ccc(O)cc1)C(=O)N[C@@H](Cc1c[nH]c2ccccc12)C(=O)N[C@@H](CCCNC(=N)N)C(=O)N[C@@H](CC(=O)O)C(=O)N1CCC[C@H]1C(N)=O [A14P31, GRKKRRQRRRPPQ-βA-GYRYWRDP] (H-GRKKRRQRRRPPQ[βAla]GYRYWRDP-NH2; N-terminus and C-terminus assumed)		135
N=C(N)NCCC[C@H](NC(=O)CN)C(=O)N[C@@H](CCCCN)C(=O)N[C@@H](CCCCN)C(=O)N[C@@H](CCCNC(=N)N)C(=O)N[C@@H](CCCNC(=N)N)C(=O)N[C@@H](CCC(N)=O)C(=O)N[C@@H](CCCNC(=N)N)C(=O)N[C@@H](CCCNC(=N)N)C(=O)N[C@@H](CCCNC(=N)N)C(=O)N1CCC[C@H]1C(=O)N1CCC[C@H]1C(=O)N[C@@H](CCC(N)=O)C(=O)NCCC(=O)N[C@@H](CCCNC(=N)N)C(=O)N[C@@H](CCCCN)C(=O)N[C@@H](CCCNC(=N)N)C(=O)N[C@@H](CO)C(=O)N[C@@H](CCCNC(=N)N)C(=O)N[C@@H](Cc1ccc(O)cc1)C(=O)N[C@@H](CC(=O)O)C(=O)N1CCC[C@H]1C(N)=O [F11P19, GRKKRRQRRRPPQ-βA-RKRSRYDP] (H-GRKKRRQRRRPPQ[βAla]RKRSRYDP-NH2; N-terminus and C-terminus assumed)	336	
CC(C)C[C@H](NC(=O)[C@H](CCCNC(=N)N)NC(=O)[C@H](CCCNC(=N)N)NC(=O)[C@H](CCCCN)NC(=O)[C@H](CCCCN)NC(=O)[C@@H](NC(=O)CCNC(=O)[C@H](CCC(N)=O)NC(=O)[C@@H]1CCCN1C(=O)[C@@H]1CCCN1C(=O)[C@H](CCCNC(=N)N)NC(=O)[C@H](CCCNC(=N)N)NC(=O)[C@H](CCCNC(=N)N)NC(=O)[C@H](CCC(N)=O)NC(=O)[C@H](CCCNC(=N)N)NC(=O)[C@H](CCCNC(=N)N)NC(=O)[C@H](CCCCN)NC(=O)[C@H](CCCCN)NC(=O)[C@H](CCCNC(=N)N)NC(=O)CN)C(C)C)C(=O)N[C@@H](Cc1c[nH]c2ccccc12)C(=O)N1CCC[C@H]1C(N)=O [A14P59, GRKKRRQRRRPPQ-βA-VKKRRLWP] (H-GRKKRRQRRRPPQ[βAla]VKKRRLWP-NH2; N-terminus and C-terminus assumed)		140
